# Columns and labels:
# [1] = tested on: tim23 mutant; assay: Yeast growth inhibition (MIC50), tim23 mutant; assay type: cell-based; settings: Saccharomyces cerevisiae; disrupted for prd5 and snq2
# [2] = tested on: mouse liver mitochondria; assay: Import of radiolabeled precursors into isolated mouse liver mitochondria; assay type: biochemical; design: import of AAC: dose or concentration left out as unconfirmed
# Experimental: Mitochondria were purified from yeast cells grown in YPEG or selective SEG medium as described in previous studies (Glick B S, Pon L A (1995). Methods Enzymol 260:213-223). Yeast cultures were kept at a constant 25° C. with vigorous shaking during growth. After concentration was measured by BCA assay, mitochondria were stored in 25 mg/ml aliquots at −80° C. Mammalian mitochondria were isolated from 2-4 freshly excised mouse livers by differential centrifugation. Briefly, isolated livers were washed 3× with cold PBS and then suspended in 4-5 mL isolation buffer (70 mM Sucrose, 220 mM mannitol, 2rnM HEPES-KOH, pH 7.4) per gram of tissue. Livers were first chopped into small pieces and then dounced 5× using a teflon dounce. Homogenized material was then centrifuged at 1,000 RPM for […] in a clinical centrifuge and supernatants were transferred to fresh tubes. Centrifugation at 1,000 RPM for 10 min was then repeated and supernatants were transferred to microfuge tubes. Next, supernatant material was spun for 10 min at 800×g (this process was repeated a second time). The supernatants from these steps were subjected to a high-speed (12,000×g for 20 min) spin to pellet heavy membrane fractions. Pellets were washed in isolation buffer and spun again (12,000×g for 20 min). After the final centrifugation step, supernatants were discarded and heavy membrane fraction was resuspended in mammalian import buffer (250 mM sucrose, 5 mM magnesium acetate, 80 mM potassium acetate, 10 mM sodium succinate, 1 mM dithiothreitol, 0.1 mM ADP, 20 mM Hepes-KOH, pH 7.4) as described in Johnston A J, et al. (2002), J Biol Chem 277:42197-42204 and kept on ice. All subsequent imports were performed within 1 hour of isolation of mammalian mitochondria. Mitochondrial concentrations were determined by BCA assay.
# Prior to import into purified mitochondria, ^35S-methionine and cysteine labeled proteins were generated with TNT Quick Coupled Transcription/Translation kits (Promega) and plasmids carrying the gene of interest. Transcription of genes was driven by either a T7 or SP6 promoter. […]
compound,measurement,setting,value
NC(=S)N/N=C/c1c(O)c(Br)cc2oc3c(c12)CCCC3 [MitoBloCK-1],MIC50,[1],> 200 µM
same,import of AAC,[2],inhibited
same,import of Hsp60,[2],not altered
same,import of Su9-DHFR,[2],not altered
